What follows are molecules tested on Human Monocytic Leukemia MV4-11 (assay: Cell proliferation experiment (Alarm blue, 72 h, EC50)). Settings: Homo sapiens, MV4-11, MV4;11 cells.
Assay type: cell-based
Method: (2.1) Cell Proliferation Experiment:
Reagents: RPMI-1640 medium, McCoy's 5A medium, IMDM medium, MEM medium, L-15 medium, fetal bovine serum, Penicillin-Streptomycin double antibody, trypsin, etc., 2-mercaptoethanol, NEAA, pyruvate, etc.
The cells were cultured in conventional ways, and the cells should be passed at least for at least 2 generations before plating. Cells at the logarithmic growth phase are collected, prepared into single cell suspensions and counted. The concentration of cells was adjusted to the desired concentration, and cells were inoculated into a 96-well cell culture plate at 100 μl per well. 100 μL of complete medium of the test compound were added to each well, set up 2 duplicates for each concentration, and diluted with a 5-fold gradient, and continue to culture for 72 h. All cells were subjected to EC50 test for corresponding samples.
The fluorescence intensity of each well was detected using the Alarm blue method, and EC50 was calculated.
EC50 was calculated according to the following formula:
Y=Max+(Min−Max)/[1+(X/EC50)×Slope]
wherein Min, Max and Slope represent the minimum, maximum and slope respectively.
With `O=C1CCC(N2Cc3c(NC(=O)CCNCCOCCN4CCC(NC(=O)c5ccc(Nc6ncc7c(n6)-c6ccc(Cl)cc6C(c6c(F)cccc6F)=NC7)cc5)CC4)cccc3C2=O)C(=O)N1` (stereo not shown) [UB-180775] the EC50 was 100 to 1000 nM.
`CC[C@@H]1C(=O)N(C)c2cnc(Nc3ccc(C(=O)NC4CCN(CCOCCNCC(=O)Nc5cccc6c5CN(C5CCC(=O)NC5=O)C6=O)C4)cc3OC)nc2N1C1CCCC1` (stereo partly shown) [UB-180713] gave an EC50 of 10 to 100 nM.
Molecule `CC[C@@H]1C(=O)N(C)c2cnc(Nc3ccc(C(=O)NC4CCN(CCOCCNCC(=O)Nc5cccc6c5CN(C5CCC(=O)NC5=O)C6=O)CC4)cc3OC)nc2N1Cc1cc(Cl)cs1` (stereo partly shown) [UB-180767] has an EC50 of 10 to 100 nM.
`CC[C@@H]1C(=O)N(C)c2cnc(Nc3ccc(C(=O)NCCC(=O)Nc4cccc5c4CN(C4CCC(=O)NC4=O)C5=O)cc3OC)nc2N1C1CCCC1` (stereo partly shown) [UB-180618] showed an EC50 greater than 1000 nM.
`O=C1CCC(N2Cc3c(NC(=O)CNCCOCCN4CCC(NC(=O)c5ccc(Nc6ncc7c(n6)-c6ccc(Cl)cc6C(c6c(F)cccc6F)=NC7)cc5)CC4)cccc3C2=O)C(=O)N1` (stereo not shown) [UB-180735] was tested, and the EC50 was 100 to 1000 nM.
For `CC[C@@H]1C(=O)N(C)c2cnc(Nc3ccc(C(=O)NC4CCN(CCNCCOCC(=O)Nc5cccc6c5CN(C5CCC(=O)NC5=O)C6=O)CC4)cc3OC)nc2N1C(C)C` (stereo partly shown) [UB-180712], the EC50 was 10 to 100 nM.
`CC[C@@H]1C(=O)N(C)c2cnc(Nc3ccc(C(=O)NCC(=O)Nc4cccc5c4CN(C4CCC(=O)NC4=O)C5=O)cc3OC)nc2N1C1CCCC1` (stereo partly shown) [UB-180570] showed an EC50 greater than 1000 nM.
`O=C1CCC(N2Cc3c(NC(=O)CCOCCNCCN4CCC(NC(=O)[C@]5(Cc6cccc(Nc7nccs7)n6)CC[C@@H](Oc6cccc(Cl)c6F)CC5)CC4)cccc3C2=O)C(=O)N1` (stereo partly shown) [UB-180769] was tested, and the EC50 was 100 to 1000 nM.
`Cc1ncsc1-c1ccc(CNC(=O)[C@@H]2C[C@@H](O)CN2C(=O)[C@@H](NC(=O)CCNCCOCCn2cc(CNC(=O)c3ccc(Nc4ncc5c(n4)-c4ccc(Cl)cc4C(c4c(F)cccc4F)=NC5)cc3)nn2)C(C)(C)C)cc1` [UB-180784] was tested, and the EC50 was greater than 1000 nM.
Molecule `O=C1CCC(N2Cc3c(NC(=O)COCCNCCOCCOCCOCCNC(=O)c4ccc(Nc5ncc6c(n5)-c5ccc(Cl)cc5C(c5c(F)cccc5F)=NC6)cc4)cccc3C2=O)C(=O)N1` (stereo not shown) [UB-180792] has an EC50 of 100 to 1000 nM.
In the case of `Cc1sc2c(c1C)C(c1ccc(Cl)cc1)=N[C@@H](CC(=O)NCCOCCNCCCC(=O)Nc1cccc3c1CN(C1CCC(=O)NC1=O)C3=O)c1nnc(C)n1-2` (stereo partly shown) [UB-180656], the EC50 is reported as 100 to 1000 nM.
`CC[C@@H]1C(=O)N(C)c2cnc(Nc3ccc(C(=O)NC4CCN(CCOCCN(C=O)CC(=O)Nc5cccc6c5CN(C5CCC(=O)NC5=O)C6=O)CC4)cc3OC)nc2N1C1CCCC1` (stereo partly shown) [UB-180834] was tested, and the EC50 was 10 to 100 nM.
For `Cc1ncsc1-c1ccc(CNC(=O)[C@@H]2C[C@@H](O)CN2C(=O)[C@@H](NC(=O)COCCCCNC(=O)c2ccc(Nc3ncc4c(n3)-c3ccc(Cl)cc3C(c3c(F)cccc3F)=NC4)cc2)C(C)(C)C)cc1` [UB-180558], the EC50 was 100 to 1000 nM.
`O=C1CCC(N2Cc3c(NC(=O)CCOCCOCCOCCNCCNC(=O)c4ccc(Nc5ncc6c(n5)-c5ccc(Cl)cc5C(c5c(F)cccc5F)=NC6)cc4)cccc3C2=O)C(=O)N1` (stereo not shown) [UB-180796] showed an EC50 greater than 1000 nM.
In the case of `Cc1ncsc1-c1ccc(CNC(=O)[C@@H]2C[C@@H](O)CN2C(=O)[C@@H](NC(=O)CCCNC(=O)[C@]2(Cc3cccc(Nc4nccs4)n3)CC[C@@H](Oc3cccc(Cl)c3F)CC2)C(C)(C)C)cc1` [UB-180583], the EC50 is reported as 100 to 1000 nM.
`CC[C@@H]1C(=O)N(C)c2cnc(Nc3ccc(C(=O)NC4CCN(CCOCCN(CC(=O)Nc5cccc6c5CN(C5CCC(=O)NC5=O)C6=O)C(=O)OC)CC4)cc3OC)nc2N1C1CCCC1` (stereo partly shown) [UB-180833] gave an EC50 of 10 to 100 nM.
With `COc1cc(C(=O)NCCOCCNCCC(=O)Nc2cccc3c2CN(C2CCC(=O)NC2=O)C3=O)ccc1Nc1ncc2c(n1)N(C(C)C)[C@H](C)C(=O)N2C` (stereo partly shown) [UB-180697] the EC50 was 100 to 1000 nM.
Molecule `CC[C@@H]1C(=O)N(C)c2cnc(Nc3ccc(C(=O)NCc4cn(CCNCCC(=O)Nc5cccc6c5CN(C5CCC(=O)NC5=O)C6=O)nn4)cc3OC)nc2N1Cc1ccc(Br)cc1` (stereo partly shown) [UB-180679] has an EC50 of 10 to 100 nM.
`O=C1CCC(N2Cc3c(NC(=O)CCNCCOCCOCCOCCOCCNC(=O)[C@]4(Cc5cccc(Nc6nccs6)n5)CC[C@@H](Oc5cccc(Cl)c5F)CC4)cccc3C2=O)C(=O)N1` (stereo partly shown) [UB-180808] was tested, and the EC50 was 100 to 1000 nM.
In the case of `O=C1CCC(N2Cc3c(NC(=O)COCCNCCn4cc(CNC(=O)c5ccc(Nc6ncc7c(n6)-c6ccc(Cl)cc6C(c6c(F)cccc6F)=NC7)cc5)nn4)cccc3C2=O)C(=O)N1` (stereo not shown) [UB-180732], the EC50 is reported as 100 to 1000 nM.
`CC[C@@H]1c2c(C#N)ncn2-c2cnc(Nc3ccc(C(=O)NC4CCN(CCCCC(=O)N[C@H](C(=O)N5C[C@H](O)C[C@H]5C(=O)NCc5ccc(-c6scnc6C)cc5)C(C)(C)C)CC4)cc3OC)nc2N1C1CCCC1` [UB-180591] was tested, and the EC50 was 100 to 1000 nM.
`CC[C@@H]1C(=O)N(C)c2cnc(Nc3ccc(C(=O)NC4CCN(CCNCCCCC(=O)Nc5cccc6c5CN(C5CCC(=O)NC5=O)C6=O)CC4)cc3OC)nc2N1C1CCCC1` (stereo partly shown) [UB-180684] showed an EC50 of 10 to 100 nM.
Work on `Cc1ncsc1-c1ccc(CNC(=O)[C@@H]2C[C@@H](O)CN2C(=O)[C@@H](NC(=O)CNCCOCCOCCOCCNC(=O)c2ccc(Nc3ncc4c(n3)-c3ccc(Cl)cc3C(c3c(F)cccc3F)=NC4)cc2)C(C)(C)C)cc1` [UB-180781] yielded an EC50 of 100 to 1000 nM.
Work on `CC[C@@H]1c2c(C#N)ncn2-c2cnc(Nc3ccc(C(=O)NCCC(=O)Nc4cccc5c4CN(C4CCC(=O)NC4=O)C5=O)cc3OC)nc2N1C1CCCC1` (stereo partly shown) [UB-180621] yielded an EC50 greater than 1000 nM.
Molecule `Cc1ncsc1-c1ccc(CNC(=O)[C@@H]2C[C@@H](O)CN2C(=O)[C@@H](NC(=O)CCOCCOCCOCCNC(=O)[C@]2(Cc3cccc(Nc4nccs4)n3)CC[C@@H](Oc3cccc(Cl)c3F)CC2)C(C)(C)C)cc1` [UB-180612] has an EC50 of 100 to 1000 nM.
`O=C1CCC(N2Cc3c(NC(=O)CCNCCn4ncc(CNC(=O)c5ccc(Nc6ncc7c(n6)-c6ccc(Cl)cc6C(c6c(F)cccc6F)=NC7)cc5)n4)cccc3C2=O)C(=O)N1` (stereo not shown) [UB-180761] showed an EC50 greater than 1000 nM.
With `Cc1ncsc1-c1ccc(CNC(=O)[C@@H]2C[C@@H](O)CN2C(=O)[C@@H](NC(=O)COCCOCCOCCNC(=O)c2ccc(Nc3ncc4c(n3)-c3ccc(Cl)cc3C(c3c(F)cccc3F)=NC4)cc2)C(C)(C)C)cc1` [UB-180514] the EC50 was 10 to 100 nM.
Molecule `CC[C@@H]1C(=O)N(C)c2cnc(Nc3ccc(C(=O)NCCCNCCN(C)CC(=O)Nc4cccc5c4CN(C4CCC(=O)NC4=O)C5=O)cc3OC)nc2N1C1CCCC1` (stereo partly shown) [UB-180708] has an EC50 of 10 to 100 nM.
Work on `Cc1ncsc1-c1ccc(CNC(=O)[C@@H]2C[C@@H](O)CN2C(=O)[C@@H](NC(=O)CCOCCOCCOCCNC(=O)c2ccc(Nc3ncc4c(n3)-c3ccc(Cl)cc3C(c3c(F)cccc3F)=NC4)cc2)C(C)(C)C)cc1` [UB-180615] yielded an EC50 of 10 to 100 nM.
`O=C1CCC(N2Cc3c(NC(=O)COCCOCCOCCNCCOCCNC(=O)c4ccc(Nc5ncc6c(n5)-c5ccc(Cl)cc5C(c5c(F)cccc5F)=NC6)cc4)cccc3C2=O)C(=O)N1` (stereo not shown) [UB-180798] showed an EC50 of 100 to 1000 nM.
For `O=C1CCC(N2Cc3c(NC(=O)CCNCCn4cc(COCCNC(=O)c5ccc(Nc6ncc7c(n6)-c6ccc(Cl)cc6C(c6c(F)cccc6F)=NC7)cc5)nn4)cccc3C2=O)C(=O)N1` (stereo not shown) [UB-180822], the EC50 was greater than 1000 nM.
Work on `O=C1CCC(N2Cc3c(NC(=O)CCOCCNCCN4CCC(NC(=O)c5ccc(Nc6ncc7c(n6)-c6ccc(Cl)cc6C(c6c(F)cccc6F)=NC7)cc5)CC4)cccc3C2=O)C(=O)N1` (stereo not shown) [UB-180768] yielded an EC50 of 100 to 1000 nM.
`CC[C@@H]1c2c(C#N)ncn2-c2cnc(Nc3ccc(C(=O)NC4CCN(CCCCCOCC(=O)N[C@H](C(=O)N5C[C@H](O)C[C@H]5C(=O)NCc5ccc(-c6scnc6C)cc5)C(C)(C)C)CC4)cc3OC)nc2N1C1CCCC1` [UB-180597] was tested, and the EC50 was greater than 1000 nM.
`COc1cc(C(=O)NCCCNCCCC(=O)Nc2cccc3c2CN(C2CCC(=O)NC2=O)C3=O)ccc1Nc1ncc2c(n1)N(Cc1ccc(Br)cc1)CC(C)(C)C(=O)N2C` (stereo not shown) [UB-180677] was tested, and the EC50 was 100 to 1000 nM.
`CC[C@@H]1C(=O)N(C)c2cnc(Nc3ccc(C(=O)NCCOCCNCC(=O)Nc4cccc5c4CN(C4CCC(=O)NC4=O)C5=O)cc3OC)nc2N1C1CCCC1` (stereo partly shown) [UB-180705] showed an EC50 of 10 to 100 nM.
With `COc1cc(C(=O)NCCCNCCCCCCCC(=O)Nc2cccc3c2CN(C2CCC(=O)NC2=O)C3=O)ccc1Nc1ncc2c(n1)N(Cc1ccc(Br)cc1)CC(C)(C)C(=O)N2C` (stereo not shown) [UB-180671] the EC50 was 100 to 1000 nM.
In the case of `CC[C@@H]1C(=O)N(C)c2cnc(Nc3ccc(C(=O)NCc4cn(CCNCC(=O)Nc5cccc6c5CN(C5CCC(=O)NC5=O)C6=O)nn4)cc3OC)nc2N1Cc1ccc(Br)cc1` (stereo partly shown) [UB-180692], the EC50 is reported as 100 to 1000 nM.
`Cc1ncsc1-c1ccc(CNC(=O)[C@@H]2C[C@@H](O)CN2C(=O)[C@@H](NC(=O)CCNCCOCCn2cc(CNC(=O)[C@]3(Cc4cccc(Nc5nccs5)n4)CC[C@@H](Oc4cccc(Cl)c4F)CC3)nn2)C(C)(C)C)cc1` [UB-180785] gave an EC50 greater than 1000 nM.
`O=C1CCC(N2Cc3c(NC(=O)CCNCCOCCN4CCC(NC(=O)[C@]5(Cc6cccc(Nc7nccs7)n6)CC[C@@H](Oc6cccc(Cl)c6F)CC5)CC4)cccc3C2=O)C(=O)N1` (stereo partly shown) [UB-180776] was tested, and the EC50 was 100 to 1000 nM.
Work on `Cc1ncsc1-c1ccc(CNC(=O)[C@@H]2C[C@@H](O)CN2C(=O)[C@@H](NC(=O)COCCNCCn2cc(COCCOCCOCCNC(=O)[C@]3(Cc4cccc(Nc5nccs5)n4)CC[C@@H](Oc4cccc(Cl)c4F)CC3)nn2)C(C)(C)C)cc1` [UB-180791] yielded an EC50 greater than 1000 nM.
Molecule `CC[C@@H]1C(=O)N(C)c2cnc(Nc3ccc(C(=O)NC4CCN(CCCCC(=O)Nc5cccc6c5CN(C5CCC(=O)NC5=O)C6=O)CC4)cc3OC)nc2N1C1CCCC1` (stereo partly shown) [UB-180596] has an EC50 of 10 to 100 nM.

Same assay, conditions: MV4;11 cells
With `O=C1CCC(N2Cc3c(NC(=O)CCNCCOCCn4cc(CNC(=O)c5ccc(Nc6ncc7c(n6)-c6ccc(Cl)cc6C(c6c(F)cccc6F)=NC7)cc5)nn4)cccc3C2=O)C(=O)N1` (stereo not shown) [UB-180748] the EC50 was greater than 1000 nM.
Work on `CC[C@@H]1C(=O)N(C)c2cnc(Nc3ccc(C(=O)NC4CCN(CCOCCNCC(=O)Nc5cccc6c5CN(C5CCC(=O)NC5=O)C6=O)CC4)cc3OC)nc2N1Cc1ccc(C)s1` (stereo partly shown) [UB-180747] yielded an EC50 of 10 to 100 nM.

Reference: patent US20210369853A1, “TARGETED PROTEASE DEGRADATION PLATFORM” (EUBULUS BIOTHERAPEUTICS INC., priority 2018, published 2021)
